The record followed here is US4514573A, “Isoprenylamine derivatives” (priority 1981, dated 1985).

Structures are written as SMILES.

Series [1] relates to vaccinia virus. In kind it is cell-based. The conditions noted are these: 50 n molar concentration, Vero cells, in vitro.
Series [2] concerns tumor cells KN7 -8. Kind of series: Anti-tumor activity in mice inoculated with tumor cells. In kind it is in vivo, Balb/c male mice. The conditions noted are these: 30 mg/kg intraperitoneally, 24 hours before inoculation and on second and fifth day after; 6 mice per group. An excerpt: Groups, each consisting of 6 Balb/c male mice weighing about 20 g, were intraperitoneally administered 5×10^5 of tumor cells KN7 -8.

Series [3] in a line: Toxicity (50% lethal dose, intravenous). The conditions noted are these: mouse, in vivo, ddY male mice 20-25 g, read-out: LD50 (Intravenously administered mg/kg). An excerpt:
Using ddY male mice weighing 20-25 g, 50% lethal dose of each test compound when intravenously administered was obtained, the results of which are shown in Table 5.

Turning to `CC(C)=CCCC(C)=CCCC(C)=CCCC(C)=CCCC(C)=CCCC(C)=CCCC(C)=CCCC(C)=CCCC(C)=CCNCc1ccc(C)cc1C`, in series [1], the “Anti-vaccinia virus activity Plaque inhibition rate %” value turned out to be 9.8%.
`CC(C)=CCCC(C)=CCCC(C)=CCCC(C)=CCCC(C)=CCCC(C)=CCCC(C)=CCCC(C)=CCCC(C)=CCCC(C)=CCNCc1cccc(CN)c1` [drawing 58]: the “Anti-tumor activity (Survivor on the 30th day)” value in series [2] was 1/6.
Consider `COc1ccc(CNCC=C(C)CCC=C(C)CCC=C(C)CCC=C(C)CCC=C(C)CCC=C(C)CCC=C(C)CCC=C(C)CCC=C(C)CCC=C(C)C)cc1` [drawing 68], for which, in series [3], the LD50 amounted to 68 mg/kg.
With `COc1ccc(CNCC=C(C)CCC=C(C)CCC=C(C)CCC=C(C)CCC=C(C)CCC=C(C)CCC=C(C)CCC=C(C)CCC=C(C)C)cc1OC` [drawing 69], the LD50 in series [3] amounted to 26 mg/kg.
As for `COc1cccc(CNCC=C(C)CCC=C(C)CCC=C(C)CCC=C(C)CCC=C(C)CCC=C(C)CCC=C(C)CCC=C(C)CCC=C(C)CCC=C(C)C)c1OC` [drawing 70], the LD50 in series [3] was 30 mg/kg.
Regarding `COc1ccc(CNCC=C(C)CCCC(C)CCCC(C)CCCC(C)C)cc1OC` (stereo not drawn) [drawing 90], the “Anti-vaccinia virus activity Plaque inhibition rate %” value in series [1] amounted to 22.0%.
